Data reported in patent US9340600B2 (Indiana University Research and Technology Corporation, priority 2012, dated 2016).
*1 amine or outer side, *2 acyl side, *3 side chain or, on linkers, in order; H or OH if unused. Where a SMILES comes first, the peptide text is derived from it. Side-chain parts run from the residue outwards. [ ]: non-standard residue; d: D form. The star is where a group is joined. γGlu = O=C(O)[C@H](CCC(=O)[*:2])N[*:1]; Palmitoyl = CCCCCCCCCCCCCCCC(=O)*; Nle = CCCC[C@H](N)C(=O)O; Aib = CC(C)(N)C(=O)O

How the values were obtained:
Assay type in all cases: cell-based
[1] = target: T1, GLP-1 receptor (Homo sapiens, UniProt P43220); assay: cAMP induction, firefly luciferase-based reporter assay in HEK293 cells co-transfected with GLP-1 receptor; settings: EC50 at GLP-1 Receptor
T1 construct: expressed in transfected cells; host or cells: HEK293
T1 sequence (P43220 24-463): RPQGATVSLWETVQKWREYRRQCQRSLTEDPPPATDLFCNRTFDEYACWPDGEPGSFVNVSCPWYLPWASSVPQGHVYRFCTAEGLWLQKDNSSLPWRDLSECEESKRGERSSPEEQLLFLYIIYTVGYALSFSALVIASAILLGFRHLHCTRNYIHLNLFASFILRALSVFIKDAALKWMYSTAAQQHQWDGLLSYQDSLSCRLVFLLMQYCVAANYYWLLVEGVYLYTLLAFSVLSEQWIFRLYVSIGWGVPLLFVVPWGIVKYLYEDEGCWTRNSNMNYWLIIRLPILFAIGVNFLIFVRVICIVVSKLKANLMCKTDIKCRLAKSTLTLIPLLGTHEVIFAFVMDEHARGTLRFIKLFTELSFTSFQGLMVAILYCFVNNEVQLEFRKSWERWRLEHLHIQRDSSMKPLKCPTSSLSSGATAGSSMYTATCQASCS
Text: (§1) This example describes an exemplary method of testing the biological activity of the peptides of the present disclosures, which method involves assaying cAMP synthesis.

[2] = target: T2, GIP receptor (Homo sapiens, UniProt P48546); assay: cAMP induction, firefly luciferase-based reporter assay in HEK293 cells co-transfected with GIP receptor; settings: EC50 at GIP Receptor
T2 construct: expressed in transfected cells; host or cells: HEK293
T2 sequence (P48546 22-466): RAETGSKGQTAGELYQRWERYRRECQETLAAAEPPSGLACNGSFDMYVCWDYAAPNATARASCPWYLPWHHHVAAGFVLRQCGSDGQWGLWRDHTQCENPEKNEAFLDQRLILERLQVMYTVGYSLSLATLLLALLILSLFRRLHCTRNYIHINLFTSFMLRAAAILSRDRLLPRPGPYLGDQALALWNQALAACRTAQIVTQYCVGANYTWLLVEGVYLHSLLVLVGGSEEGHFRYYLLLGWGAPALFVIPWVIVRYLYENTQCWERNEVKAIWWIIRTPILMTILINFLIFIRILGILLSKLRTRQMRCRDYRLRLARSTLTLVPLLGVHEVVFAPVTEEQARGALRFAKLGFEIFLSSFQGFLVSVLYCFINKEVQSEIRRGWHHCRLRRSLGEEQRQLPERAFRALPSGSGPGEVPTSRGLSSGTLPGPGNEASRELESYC
Text: as §1

[3] = target: T3, glucagon receptor (Homo sapiens, UniProt P47871); assay: cAMP induction, firefly luciferase-based reporter assay in HEK293 cells co-transfected with glucagon receptor; settings: EC50 at Glucagon Receptor
T3 construct: expressed in transfected cells; host or cells: HEK293
T3 sequence (P47871 26-477): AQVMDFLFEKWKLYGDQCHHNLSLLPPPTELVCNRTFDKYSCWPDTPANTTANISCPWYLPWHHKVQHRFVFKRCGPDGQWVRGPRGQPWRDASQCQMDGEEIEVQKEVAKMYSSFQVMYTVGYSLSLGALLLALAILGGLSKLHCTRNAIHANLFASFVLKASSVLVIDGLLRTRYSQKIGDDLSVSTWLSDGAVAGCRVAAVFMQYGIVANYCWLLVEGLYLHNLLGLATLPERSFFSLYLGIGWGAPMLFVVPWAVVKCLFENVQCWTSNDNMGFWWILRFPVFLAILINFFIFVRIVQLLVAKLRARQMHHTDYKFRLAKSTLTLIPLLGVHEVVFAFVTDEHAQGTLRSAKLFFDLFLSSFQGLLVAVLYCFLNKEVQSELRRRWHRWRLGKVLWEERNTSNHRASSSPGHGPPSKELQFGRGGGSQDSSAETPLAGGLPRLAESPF
Text: as §1

[4] = Table 3, analogs of SEQ ID NO: 18 varying at position 3
[5] = Table 2, analogs of SEQ ID NO: 18 varying at positions 16-21
[6] = Table 4, analogs of SEQ ID NO: 43 varying at position 3
[7] = Table 5, analogs of SEQ ID NO: 10

| SMILES | EC50 [1, 4] [pM] | EC50 [2, 4] [pM] | EC50 [3, 4] [pM] | EC50 ([1]; Table 1) [pM] | EC50 [1, 5] [pM] | EC50 [2, 5] [pM] | EC50 [3, 5] [pM] | EC50 [1, 6] [pM] | EC50 [2, 6] [pM] | EC50 [3, 6] [pM] | other results |
| --- | --- | --- | --- | --- | --- | --- | --- | --- | --- | --- | --- |
| CCCCCCCCCCCCCCCC(=O)N[C@@H](CCC(=O)NCCCC[C@H](NC(=O)[C@H](CC(=O)O)NC(=O)[C@H](CO)NC(=O)[C@@H](NC(=O)[C@H](Cc1ccccc1)NC(=O)[C@@H](NC(=O)CNC(=O)[C@H](CCCC)NC(=O)C(C)(C)NC(=O)[C@@H](N)Cc1c[nH]cn1)[C@@H](C)O)[C@@H](C)O)C(=O)N[C@@H](CO)C(=O)N[C@@H](CCCCN)C(=O)N[C@@H](Cc1ccc(O)cc1)C(=O)N[C@@H](CC(C)C)C(=O)N[C@@H](CCC(=O)O)C(=O)N[C@@H](CCC(=O)O)C(=O)N[C@@H](CCCNC(=N)N)C(=O)N[C@@H](C)C(=O)N[C@@H](C)C(=O)N[C@@H](CCC(N)=O)C(=O)N[C@@H](CCC(=O)O)C(=O)N[C@@H](Cc1ccccc1)C(=O)N[C@H](C(=O)N[C@@H](CCC(N)=O)C(=O)N[C@@H](Cc1c[nH]c2ccccc12)C(=O)N[C@@H](CC(C)C)C(=O)N[C@@H](CC(C)C)C(=O)N[C@@H](CCC(=O)O)C(=O)NCC(=O)NCC(=O)N1CCC[C@H]1C(=O)N[C@@H](CO)C(=O)N[C@@H](CO)C(=O)NCC(=O)N[C@@H](C)C(=O)N1CCC[C@H]1C(=O)N1CCC[C@H]1C(=O)N1CCC[C@H]1C(=O)N[C@@H](CO)C(N)=O)C(C)C)C(=O)O [compound 40] (H-H[Aib][Nle]GTFTSDK([γGlu-Palmitoyl])SKYLEERAAQEFVQWLLEGGPSSGAPPPS-NH2; N-terminus assumed) | 2 | 4 | 68 | – | – | – | – | – | – | – | – |
| CCCCCCCCCCCCCCCC(=O)N[C@@H](CCC(=O)NCCCC[C@H](NC(=O)[C@H](CC(=O)O)NC(=O)[C@H](CO)NC(=O)[C@@H](NC(=O)[C@H](Cc1ccccc1)NC(=O)[C@@H](NC(=O)CNC(=O)[C@H](CCC(N)=O)NC(=O)C(C)(C)NC(=O)[C@@H](N)Cc1c[nH]cn1)[C@@H](C)O)[C@@H](C)O)C(=O)N[C@@H](CO)C(=O)N[C@@H](CCCCN)C(=O)N[C@@H](Cc1ccc(O)cc1)C(=O)N[C@@H](CC(C)C)C(=O)N[C@@H](CCC(=O)O)C(=O)N[C@@H](CCC(=O)O)C(=O)N[C@@H](CCCNC(=N)N)C(=O)N[C@@H](C)C(=O)N[C@@H](C)C(=O)N[C@@H](CCC(N)=O)C(=O)N[C@@H](CCC(=O)O)C(=O)N[C@@H](Cc1ccccc1)C(=O)N[C@H](C(=O)N[C@@H](CCC(N)=O)C(=O)N[C@@H](Cc1c[nH]c2ccccc12)C(=O)N[C@@H](CC(C)C)C(=O)N[C@@H](CC(C)C)C(=O)N[C@@H](CCC(=O)O)C(=O)NCC(=O)NCC(=O)N1CCC[C@H]1C(=O)N[C@@H](CO)C(=O)N[C@@H](CO)C(=O)NCC(=O)N[C@@H](C)C(=O)N1CCC[C@H]1C(=O)N1CCC[C@H]1C(=O)N1CCC[C@H]1C(=O)N[C@@H](CO)C(N)=O)C(C)C)C(=O)O [compound 18] (H-H[Aib]QGTFTSDK([γGlu-Palmitoyl])SKYLEERAAQEFVQWLLEGGPSSGAPPPS-NH2) | – | 4 | 5 | 8 | 10 | 4 | 5 | – | – | – | – |
| CCCCCCCCCCCCCCCC(=O)N[C@@H](CCC(=O)NCCCC[C@H](NC(=O)[C@H](CC(=O)O)NC(=O)[C@H](CO)NC(=O)[C@@H](NC(=O)[C@H](Cc1ccccc1)NC(=O)[C@@H](NC(=O)CNC(=O)[C@H](CC[S+](C)[O-])NC(=O)C(C)(C)NC(=O)[C@@H](N)Cc1c[nH]cn1)[C@@H](C)O)[C@@H](C)O)C(=O)N[C@@H](CO)C(=O)N[C@@H](CCCCN)C(=O)N[C@@H](Cc1ccc(O)cc1)C(=O)N[C@@H](CC(C)C)C(=O)N[C@@H](CC(=O)O)C(=O)N[C@@H](CCC(=O)O)C(=O)N[C@@H](CCCNC(=N)N)C(=O)N[C@@H](C)C(=O)N[C@@H](C)C(=O)N[C@@H](CCC(N)=O)C(=O)N[C@@H](CC(=O)O)C(=O)N[C@@H](Cc1ccccc1)C(=O)N[C@H](C(=O)N[C@@H](CCC(N)=O)C(=O)N[C@@H](Cc1c[nH]c2ccccc12)C(=O)N[C@@H](CC(C)C)C(=O)N[C@@H](CC(C)C)C(=O)N[C@@H](CCC(=O)O)C(=O)NCC(=O)NCC(=O)N1CCC[C@H]1C(=O)N[C@@H](CO)C(=O)N[C@@H](CO)C(=O)NCC(=O)N[C@@H](C)C(=O)N1CCC[C@H]1C(=O)N1CCC[C@H]1C(=O)N1CCC[C@H]1C(=O)N[C@@H](CO)C(N)=O)C(C)C)C(=O)O (stereo partly drawn) [compound 46] | – | – | – | – | – | – | – | 3 | 18 | 89 | – |
| CCCCCCCCCCCCCCCC(=O)N[C@@H](CCC(=O)NCCCC[C@H](NC(=O)[C@H](CC(=O)O)NC(=O)[C@H](CO)NC(=O)[C@@H](NC(=O)[C@H](Cc1ccccc1)NC(=O)[C@@H](NC(=O)CNC(=O)[C@H](CCCCNC(C)=O)NC(=O)C(C)(C)NC(=O)[C@@H](N)Cc1c[nH]cn1)[C@@H](C)O)[C@@H](C)O)C(=O)N[C@@H](CO)C(=O)N[C@@H](CCCCN)C(=O)N[C@@H](Cc1ccc(O)cc1)C(=O)N[C@@H](CC(C)C)C(=O)N[C@@H](CCC(=O)O)C(=O)N[C@@H](CCC(=O)O)C(=O)N[C@@H](CCCNC(=N)N)C(=O)N[C@@H](C)C(=O)N[C@@H](C)C(=O)N[C@@H](CCC(N)=O)C(=O)N[C@@H](CCC(=O)O)C(=O)N[C@@H](Cc1ccccc1)C(=O)N[C@H](C(=O)N[C@@H](CCC(N)=O)C(=O)N[C@@H](Cc1c[nH]c2ccccc12)C(=O)N[C@@H](CC(C)C)C(=O)N[C@@H](CC(C)C)C(=O)N[C@@H](CCC(=O)O)C(=O)NCC(=O)NCC(=O)N1CCC[C@H]1C(=O)N[C@@H](CO)C(=O)N[C@@H](CO)C(=O)NCC(=O)N[C@@H](C)C(=O)N1CCC[C@H]1C(=O)N1CCC[C@H]1C(=O)N1CCC[C@H]1C(=O)N[C@@H](CO)C(N)=O)C(C)C)C(=O)O [compound 39] (H-H[Aib]K(Ac)GTFTSDK([γGlu-Palmitoyl])SKYLEERAAQEFVQWLLEGGPSSGAPPPS-NH2; N-terminus assumed) | 10 | 336 | 543 | – | – | – | – | – | – | – | – |
| CCCCCCCCCCCCCCCC(=O)N[C@@H](CCC(=O)NCCCC[C@H](NC(=O)[C@H](CC(=O)O)NC(=O)[C@H](CO)NC(=O)[C@@H](NC(=O)[C@H](Cc1ccccc1)NC(=O)[C@@H](NC(=O)CNC(=O)[C@H](CCC(N)=O)NC(=O)C(C)(C)NC(=O)[C@@H](N)Cc1c[nH]cn1)[C@@H](C)O)[C@@H](C)O)C(=O)N[C@@H](CO)C(=O)N[C@@H](CCCCN)C(=O)N[C@@H](Cc1ccc(O)cc1)C(=O)N[C@@H](CC(C)C)C(=O)N[C@@H](CC(=O)O)C(=O)N[C@@H](CCC(=O)O)C(=O)N[C@@H](CCCNC(=N)N)C(=O)N[C@@H](C)C(=O)N[C@@H](C)C(=O)NC(C)(C)C(=O)N[C@@H](CCC(=O)O)C(=O)N[C@@H](Cc1ccccc1)C(=O)N[C@H](C(=O)N[C@@H](CCC(N)=O)C(=O)N[C@@H](Cc1c[nH]c2ccccc12)C(=O)N[C@@H](CC(C)C)C(=O)N[C@@H](CC(C)C)C(=O)N[C@@H](CC(=O)O)C(=O)NCC(=O)NCC(=O)N1CCC[C@H]1C(=O)N[C@@H](CO)C(=O)N[C@@H](CO)C(=O)NCC(=O)N[C@@H](C)C(=O)N1CCC[C@H]1C(=O)N1CCC[C@H]1C(=O)N1CCC[C@H]1C(=O)N[C@@H](CO)C(N)=O)C(C)C)C(=O)O [compound 21] (H-H[Aib]QGTFTSDK([γGlu-Palmitoyl])SKYLDERAA[Aib]EFVQWLLDGGPSSGAPPPS-NH2; N-terminus assumed) | – | – | – | – | 4 | 1 | 2 | – | – | – | – |
| CCCCCCCCCCCCCCCC(=O)N[C@@H](CCC(=O)NCCCC[C@H](NC(=O)[C@H](CC(=O)O)NC(=O)[C@H](CO)NC(=O)[C@@H](NC(=O)[C@H](Cc1ccccc1)NC(=O)[C@@H](NC(=O)CNC(=O)[C@H](CCC(N)=O)NC(=O)C(C)(C)NC(=O)[C@@H](N)Cc1c[nH]cn1)[C@@H](C)O)[C@@H](C)O)C(=O)N[C@@H](CO)C(=O)N[C@@H](CCCCN)C(=O)N[C@@H](Cc1ccc(O)cc1)C(=O)N[C@@H](CC(C)C)C(=O)N[C@@H](CC(=O)O)C(=O)N[C@@H](CCC(=O)O)C(=O)N[C@@H](CCCNC(=N)N)C(=O)N[C@@H](C)C(=O)N[C@@H](C)C(=O)N[C@@H](CCC(N)=O)C(=O)N[C@@H](CC(=O)O)C(=O)N[C@@H](Cc1ccccc1)C(=O)N[C@H](C(=O)N[C@@H](CCC(N)=O)C(=O)N[C@@H](Cc1c[nH]c2ccccc12)C(=O)N[C@@H](CC(C)C)C(=O)N[C@@H](CC(C)C)C(=O)N[C@@H](CCC(=O)O)C(=O)NCC(=O)NCC(=O)N1CCC[C@H]1C(=O)N[C@@H](CO)C(=O)N[C@@H](CO)C(=O)NCC(=O)N[C@@H](C)C(=O)N1CCC[C@H]1C(=O)N1CCC[C@H]1C(=O)N1CCC[C@H]1C(=O)N[C@@H](CO)C(N)=O)C(C)C)C(=O)O [compound 43] (H-H[Aib]QGTFTSDK([γGlu-Palmitoyl])SKYLDERAAQDFVQWLLEGGPSSGAPPPS-NH2) | – | – | – | 4 | – | – | – | 10 | 4 | 5 | EC50 [1, 7]: 7 pM; EC50 ([2]; Table 1): 5 pM; EC50 [2, 7]: 18 pM; EC50 ([3]; Table 1): 6 pM; EC50 [3, 7]: 5 pM |
